Values joined by “and” are separate entries in the source; they are usually repeats but may differ in a detail not shown here. Identical values can stand only once. Like-named read-outs stand apart in the source and are kept apart here. Marks after values point to notes of the source that are not given here.
Columns and labels:
B. anthracis NMAT [1] = target: T1, B. anthracis NMAT (Bacillus anthracis, UniProt C3L5T6); type: biochemical
B. anthracis NMAT [2] = target: T1, B. anthracis NMAT; type: biochemical; remark: listed apart in the source
native B. anthracis NMAT [3] = type: biochemical; conditions: pH 7.5
[4] = system: (His)6-tag B. anthracis NMAT; type: biochemical, Bacillus anthracis
native B. anthracis NMAT [5] = type: biochemical, Bacillus anthracis; conditions: pH 7.5
B. anthracis NMAT [6] = target: T1, B. anthracis NMAT; experiment: biochemical; type: binding
(His)6-tagged NMAT = (His)6-tagged NMAT (Bacillus anthracis, UniProt C3L5T6)
(His)6-tagged NMAT, sequence (C3L5T6 whole entry, looked up): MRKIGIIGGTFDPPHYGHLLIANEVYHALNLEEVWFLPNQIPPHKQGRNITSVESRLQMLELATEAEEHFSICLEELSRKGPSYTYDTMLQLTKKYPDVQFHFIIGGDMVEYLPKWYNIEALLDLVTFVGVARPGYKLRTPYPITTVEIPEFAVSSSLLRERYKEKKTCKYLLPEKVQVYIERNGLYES

[7] = system: (His)6-tag B. anthracis NMAT; type: biochemical, Bacillus anthracis; remark: listed apart in the source
B. anthracis NMAT [8] = target: T1, B. anthracis NMAT; type: biochemical; remark: listed apart in the source
[9] = read-out: KD2 (dissociation constant, second site), pH 7.5

T1 sequence (C3L5T6 whole entry, looked up): as above

Compound: Nc1ccn([C@@H]2O[C@H](COP(=O)(O)OP(=O)(O)OP(=O)(O)O)[C@@H](O)[C@H]2O)c(=O)n1 [CTP, cytidine triphosphate]
- ability to serve as substrate for NMAT in place of ATP (B. anthracis NMAT [1]): able to serve as substrates

Compound: O=c1[nH]cnc2c1ncn2[C@@H]1O[C@H](COP(=O)(O)OP(=O)(O)O)[C@@H](O)[C@H]1O [IDP, inosine diphosphate]
- ability to serve as substrate for NMAT in place of ATP (B. anthracis NMAT [1]): Only CTP and dATP were able to serve as substrates

Compound: Cc1cn([C@H]2C[C@H](O)[C@@H](COP(=O)(O)OP(=O)(O)O)O2)c(=O)[nH]c1=O [TDP, thymidine diphosphate]
- ability to serve as substrate for NMAT in place of ATP (B. anthracis NMAT [1]): Only CTP and dATP were able to serve as substrates

Compound: Nc1ncnc2c1ncn2[C@@H]1O[C@H](COP(=O)(O)OP(=O)(O)O)[C@@H](O)[C@H]1O [ADP]
- ability to activate or inhibit the NMAT reaction (B. anthracis NMAT [2]): None of these compounds were observed to have an effect
- ability to serve as substrate for NMAT in place of ATP (B. anthracis NMAT [1]): Only CTP and dATP were able to serve as substrates

Compound: O=c1ccn([C@@H]2O[C@H](CO[P@@](=O)(O)O[P@@](=O)(O)OP(=O)(O)O)[C@@H](O)[C@H]2O)c(=O)[nH]1 (stereo in doubt) [UTP, uridine triphosphate]
- ability to serve as substrate for NMAT in place of ATP (B. anthracis NMAT [1]): Only CTP and dATP were able to serve as substrates

Compound: O=C(O)c1ccc[n+]([C@@H]2O[C@H](COP(=O)(O)O)[C@@H](O)[C@H]2O)c1 [NaMN, nicotinate mononucleotide]
- K0.5 (native B. anthracis NMAT [3]): 16 ± 1 ^c μM and 15 ± 1 ^d μM
- kcat (native B. anthracis NMAT [3]): 815 ± 12 ^c min^−1 and 782 ± 7 ^d min^−1
- nH (Hill coefficient) (native B. anthracis NMAT [3]): 0.806 ± 0.004 ^c
- difference in K0.5 between the continuous and discontinuous assays [4]: ~4 fold
- K0.5 (native B. anthracis NMAT [5]): 110 ± 18 ^c μM and 65 ± 5 ^d μM
- kcat (native B. anthracis NMAT [5]): 1059 ± 49 ^c min^−1 and 890 ± 16 ^d min^−1
- nH (Hill coefficient) (native B. anthracis NMAT [5]): 0.708 ± 0.004 ^c
- ΔH1 (B. anthracis NMAT [6]; pH 7.5): ΔH1= −5385 ± 47 cal/mol
- ΔH2 (B. anthracis NMAT [6]; pH 7.5): ΔH2= −3954 ± 183 cal/mol
- ΔS1 (B. anthracis NMAT [6]; pH 7.5): ΔS1= −2.4 cal/mol*K
- ΔS2 (B. anthracis NMAT [6]; pH 7.5): ΔS2= −3.9 cal/mol*K
- Kd (B. anthracis NMAT [6]; read-out: KD1 (dissociation constant, first site), pH 7.5): 382 µM
- Kd (B. anthracis NMAT [6]; [9]): 9210 µM

Compound: O=P(O)(O)OC[C@H]1O[C@H](OP(=O)(O)OP(=O)(O)O)[C@H](O)[C@@H]1O [PRPP, 5-phospho-ribose-1-pyrophosphate]
- ability to activate or inhibit the NMAT reaction (B. anthracis NMAT [2]): None of these compounds were observed to have an effect

Compound: Nc1ncnc2c1ncn2[C@@H]1O[C@H](COP(=O)(O)OP(=O)(O)OC[C@H]2O[C@@H]([n+]3cccc(C(=O)O)c3)[C@H](O)[C@@H]2O)[C@@H](O)[C@H]1O [NaAD, nicotinate adenine dinucleotide]
- Stoichiometry to monomer (B. anthracis NMAT [6]; pH 7.5): 0.924 ± 0.003
- ΔH (B. anthracis NMAT [6]; pH 7.5): -6446 ± 30 cal/mol
- ΔS (B. anthracis NMAT [6]; pH 7.5): ΔS=3.5 cal/mol*K
- Kd (B. anthracis NMAT [6]; read-out: KD (dissociation constant), pH 7.5): 3.2 ± 0.8 µM
- pattern of inhibition by the reaction product, ATP as variable substrate ((His)6-tagged NMAT): competitive inhibition
- pattern of inhibition by the reaction product, NaMN as variable substrate ((His)6-tagged NMAT): competitive inhibition

Compound: O=c1ccn([C@@H]2O[C@H](COP(=O)(O)OP(=O)(O)O)[C@@H](O)[C@H]2O)c(=O)[nH]1 [UDP, uridine diphosphate]
- ability to serve as substrate for NMAT in place of ATP (B. anthracis NMAT [1]): Only CTP and dATP were able to serve as substrates

Compound: Nc1ccn([C@@H]2O[C@H](COP(=O)(O)OP(=O)(O)O)[C@@H](O)[C@H]2O)c(=O)n1 [CDP, cytidine diphosphate]
- ability to serve as substrate for NMAT in place of ATP (B. anthracis NMAT [1]): Only CTP and dATP were able to serve as substrates

Compound: Nc1nc2c(ncn2[C@@H]2O[C@H](COP(=O)(O)OP(=O)(O)O)[C@@H](O)[C@H]2O)c(=O)[nH]1 [GDP, guanosine diphosphates]
- ability to serve as substrate for NMAT in place of ATP (B. anthracis NMAT [1]): Only CTP and dATP were able to serve as substrates

Compound: Nc1ncnc2c1ncn2[C@@H]1O[C@H](COP(=O)(O)OP(=O)(O)OP(=O)(O)O)[C@@H](O)[C@H]1O [ATP, adenosine triphosphate]
- K0.5 ([7]; pH 7.5): 142 ± 28 μM and 142 ± 28 ^c μM and 79 ± 6 ^d μM
- kcat (native B. anthracis NMAT [3]): 973 ± 120 ^c min^−1 and 702 ± 20 ^d min^−1
- nH (Hill coefficient) (native B. anthracis NMAT [3]): 0.621 ± 0.007 ^c
- difference in K0.5 between the continuous and discontinuous assays [4]: ~4 fold
- kcat (native B. anthracis NMAT [5]): 1240 ± 111 ^c min^−1 and 864 ± 19 ^d min^−1
- nH (Hill coefficient) (native B. anthracis NMAT [5]): 0.661 ± 0.004 ^c
- Kd (B. anthracis NMAT [6]): 215 µM
- ΔH1 (B. anthracis NMAT [6]; pH 7.5): ΔH1= −5348 ± 216 cal/mol
- ΔH2 (B. anthracis NMAT [6]; pH 7.5): ΔH2= −1.4E4 ± 350 cal/mol
- ΔS1 (B. anthracis NMAT [6]; pH 7.5): ΔS1= −1.2 cal/mol*K
- ΔS2 (B. anthracis NMAT [6]; pH 7.5): ΔS2= −36 cal/mol*K
- Kd (B. anthracis NMAT [6]; [9]): 3720 µM

Compound: NC(=O)c1ccc[n+]([C@@H]2O[C@H](COP(=O)([O-])O)[C@@H](O)[C@H]2O)c1 [NMN, nicotinamide mononucleotide]
- ability to activate or inhibit the NMAT reaction (B. anthracis NMAT [2]): None of these compounds were observed to have an effect
- activity of NMAT with the mononucleotide as substrate (B. anthracis NMAT [8]): little to no activity

Compound: N[C@@H](CC(=O)O)C(=O)O [L-aspartic acid]
- ability to activate or inhibit the NMAT reaction (B. anthracis NMAT [2]): None of these compounds were observed to have an effect

Compound: O=C(CO)COP(=O)(O)O [DHAP, dihydroxyacetone phosphate]
- ability to activate or inhibit the NMAT reaction (B. anthracis NMAT [2]): None of these compounds were observed to have an effect

Compound: NC(=O)c1ccc[n+]([C@@H]2O[C@H](COP(=O)([O-])OP(=O)(O)OC[C@H]3O[C@@H](n4cnc5c(N)ncnc54)[C@H](O)[C@@H]3O)[C@@H](O)[C@H]2O)c1 [NAD, nicotinamide adenine dinucleotide]
- ability to activate or inhibit the NMAT reaction (B. anthracis NMAT [2]): None of these compounds were observed to have an effect

Compound: Nc1nc2c(ncn2[C@@H]2O[C@H](COP(=O)(O)OP(=O)(O)OP(=O)(O)O)[C@@H](O)[C@H]2O)c(=O)[nH]1 [GTP, guanosine triphosphate]
- ability to serve as substrate for NMAT in place of ATP (B. anthracis NMAT [1]): Only CTP and dATP were able to serve as substrates

Compound: OCC(O)CO [glycerol]
- effect of 10% glycerol on the steady-state kinetic parameters of ATP and NaMN [7]: no significant change in the kinetic parameters

Compound: O=C(O)c1cccnc1C(=O)O [quinolic acid]
- ability to activate or inhibit the NMAT reaction (B. anthracis NMAT [2]): None of these compounds were observed to have an effect

Compound: nicotinamide adenine dinucleotide phosphate [NADP]
- ability to activate or inhibit the NMAT reaction (B. anthracis NMAT [2]): None of these compounds were observed to have an effect

Compound: Nc1ncnc2c1ncn2[C@H]1C[C@H](O)[C@@H](COP(=O)(O)OP(=O)(O)OP(=O)(O)O)O1 [dATP, Deoxyadenosine triphosphate]
- ability to serve as substrate for NMAT in place of ATP (B. anthracis NMAT [1]): able to serve as substrates

Compound: Nc1ncnc2c1ncn2[C@@H]1O[C@H](COP(=O)(O)O)[C@@H](O)[C@H]1O [AMP]
- ability to activate or inhibit the NMAT reaction (B. anthracis NMAT [2]): None of these compounds were observed to have an effect
- ability to serve as substrate for NMAT in place of ATP (B. anthracis NMAT [1]): Only CTP and dATP were able to serve as substrates

From publication PMC2654404 (Journal of molecular biology, 2008)
